Experimental data: publication PMC9428149, “Tackling recalcitrant Pseudomonas aeruginosa infections in critical illness via anti-virulence monotherapy” (Nature Communications, 2022)
In brackets after ≈: the same amount, converted by molar mass. Read-outs that look alike come from different tables or passages of the source.

Columns and labels:
[1] = system: pqsA promoter (PA14 PpqsA-GFPASV); assay: pqsA-GFP reporter expression; format: cell-based, Pseudomonas aeruginosa; settings: Pseudomonas aeruginosa; for activity at 50 µM: PA14, read-out: % Production pqsA-GFP; for IC50: PA14, read-out: IC50 pqsA-GFP expression, PA14, 13 concentrations
[2] = system: PA14 AT/P cells; assay: AT/P cells formation assay in PA14; format: cell-based, Pseudomonas aeruginosa; settings: for inhibition at 10 µM: Pseudomonas aeruginosa, PA14, 24 h, read-out: inhibition of AT/P cells formation
[3] = system: mvfR mutant constitutively expressing the pqsABCDE operon; format: cell-based; settings: Pseudomonas aeruginosa, control about 100, single replicates (Figure 4a)
[4] = target: T1, MvfR protein (MvfRC87) (Pseudomonas aeruginosa, UniProt Q9I4X0); format: binding; settings: SPR
T1 construct: The MvfRC87 protein purified as in Xiao et. al., 2006; made in house
T1 sequence (Q9I4X0 87-332): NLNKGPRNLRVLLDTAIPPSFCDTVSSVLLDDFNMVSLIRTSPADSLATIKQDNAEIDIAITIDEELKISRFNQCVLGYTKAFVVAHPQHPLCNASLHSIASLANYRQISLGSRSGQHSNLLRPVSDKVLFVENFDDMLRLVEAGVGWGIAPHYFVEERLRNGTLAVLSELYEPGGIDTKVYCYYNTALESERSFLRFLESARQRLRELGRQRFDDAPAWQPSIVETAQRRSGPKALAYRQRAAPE
Outline: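 MvfRC87 amine-coupled to a CM7 chip (3000–5000 RU) and binding measured by SPR. Double-reference-corrected responses 5 s before end of association plotted against concentration, for inhibitor alone and with native ligand PQS, compared with responses calculated for different binding sites.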

[5] = Solubility in iPBS pH 7.4 by HPLC; format: physicochemical; settings: isotonic phosphate buffer (iPBS), aqueous with cosolvent or surfactant or cyclodextrin, kinetic from dmso stock; iPBS pH 7.4, HPLC; read-out: Solubility (M) in PBS
Outline: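 Compounds from 10 mM DMSO stock shaken 4 h at room temperature in iPBS pH 7.4 (10 mM PBS, 2.7 mM KCl, 140 mM NaCl, 0.05% Tween), then filtered. Concentration measured by HPLC-UV against a known standard solution; solubility given as ratio of compound in test solution to standard.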

[6] = system: pyocyanin production in PA14; assay: Pyocyanin production assay; settings: Pseudomonas aeruginosa; for activity at 50 µM: PA14, 18 h, read-out: % Production Pyocyanin; for IC50: PA14, read-out: IC50 pyocyanin production
[7] = system: 16 MDR P. aeruginosa clinical isolates; assay: Pyocyanin production in MDR clinical isolates; settings: Pseudomonas aeruginosa, 18 h, Control about 100, replicates
[8] = system: ΔmvfR biofilm; assay: Biofilm formation of ΔmvfR mutant (off-target); settings: Pseudomonas aeruginosa, PA14, 24 h, read-out: Biofilm formation, ΔmvfR + compound; PA14 about 100; single replicates (Figure 4c)
[9] = system: PA14 isogenic mutant ΔmvfR AT/P cells; assay: AT/P cell formation in ΔmvfR mutant (off-target); settings: Pseudomonas aeruginosa, PA14, 24 h, read-out: AT/P cell formation, ΔmvfR + compound; PA14 about 100; single replicates (Figure 4b)
[10] = system: MvfR-regulated small molecules in PA14; assay: Production of HAQs, 2-AA, DHQ and AA in PA14 cultures (LC-MS); settings: Pseudomonas aeruginosa
Protocol: The HAQs HHQ, PQS, HQNO, and non-HAQs: 2-AA and DHQ produced by PA14 cells were quantified in the presence of NAMs. The overnight grown starter culture was diluted 1:100 in 5 mL LB media in a glass tube and was allowed to grow in the presence (50 µM) or absence of compound at 37 °C and 200 rpm in an incubator shaker until OD600 was 3. Bacterial cultures were subsequently mixed 1:1 (400 μL: 400 μL) with 100% methanol containing 20 ppm (20 μg mL^−1) of tetradeutero-PQS (PQS-D4) and 10 ppm of tetradeutero-HHQ (HHQ-D4) in a 1.5 mL Eppendorf tube. The mixture was vortexed for 5 seconds and spun down for 5 minutes at 12,000 x g. A 700 μL aliquot of the supernatant was removed and stored in glass vials at −20 °C until further liquid chromatography-mass spectrophotometry (LC/MS) analysis as previously described in Lepine et al., 2003[66]. LC/MC analysis was performed using a Micromass Quattro II triple quadrupole mass spectrometer (Micromass Canada, Pointe-Claire, Canada) in positive electrospray ionization mode, interfaced to an HP1100 HPLC equipped with a 4.5 × 150 mm reverse-phase C8 column.
GraphPad Prism 9.2.0 software was used to plot the IC50 curve against the percent inhibition of these small molecules’ production at each concentration.

[11] = read-out: DHQ, ΔmvfR-pqsABCD strain
[12] = read-out: HQNO, ΔmvfR-pqsABCD strain
[13] = read-out: PQS, ΔmvfR-pqsABCD strain
[14] = read-out: Pyocyanin production relative to Control, clinical isolate LGR-4325
[15] = read-out: Pyocyanin production relative to Control, clinical isolate LGR-4326
[16] = read-out: Pyocyanin production relative to Control, clinical isolate LGR-4327
[17] = read-out: Pyocyanin production relative to Control, clinical isolate LGR-4328
[18] = read-out: Pyocyanin production relative to Control, clinical isolate LGR-4330
[19] = read-out: Pyocyanin production relative to Control, clinical isolate LGR-4331 (first section, r117)
[20] = read-out: Pyocyanin production relative to Control, clinical isolate LGR-4331 (second section, r140)
[21] = read-out: Pyocyanin production relative to Control, clinical isolate LGR-4333
[22] = read-out: Pyocyanin production relative to Control, clinical isolate LGR-4343
[23] = read-out: Pyocyanin production relative to Control, clinical isolate LGR-4344
[24] = read-out: Pyocyanin production relative to Control, clinical isolate LGR-4348
[25] = read-out: Pyocyanin production relative to Control, clinical isolate LGR-4356
[26] = read-out: Pyocyanin production relative to Control, clinical isolate LGR-4362
[27] = read-out: Pyocyanin production relative to Control, clinical isolate LGR-4363
[28] = read-out: Pyocyanin production relative to Control, clinical isolate LGR-4364 (first section, r326)
[29] = read-out: Pyocyanin production relative to Control, clinical isolate LGR-4364 (second section, r349)
[30] = PA14, read-out: % Production 2-AA
[31] = PA14, read-out: % Production AA
[32] = PA14, read-out: % Production DHQ
[33] = PA14, read-out: % Production HHQ
[34] = PA14, read-out: % Production HQNO
[35] = PA14, read-out: % Production PQS

With `N#Cc1ccc(NC(=O)CC(=O)Nc2ccc(C#N)cc2)cc1` [D43] the activity at 50 µM [1] was 8%, the IC50 [1] was 970 nM and the “AT/P cells formation, percentage of control (single replicates)” value ([2]; PA14, 10 μg mL^−1 meropenem, 10 µM compound, 24 h, control PA14 + vehicle) was 39.10%. For the same molecule, the inhibition at 10 µM [2] was at least 51%, the activity at 50 µM [3, 11] was 103% and the activity at 50 µM [3, 12] was 91.3%. For the same molecule, the activity at 50 µM [3, 13] was 99.4%, the “Response Unit (RU)” value ([4]; Concentration 1.00E-05 M) was 29.2 RU and the “Response Unit (RU)” value ([4]; Concentration 1.00E-06 M) was 22.5 RU. For the same molecule, the “Response Unit (RU)” value ([4]; Concentration 1.00E-07 M) was 9.9 RU, the “Response Unit (RU)” value ([4]; Concentration 1.00E-08 M) was 2.7 RU and the “Response Unit (RU)” value ([4]; Concentration 3.16E-06 M) was 26.7 RU. For the same molecule, the “Response Unit (RU)” value ([4]; Concentration 3.16E-07 M) was 16.5 RU, the “Response Unit (RU)” value ([4]; Concentration 3.16E-08 M) was 5 RU and the solubility at 4 h [5] was 1.1e-05 M (≈ 3.35 µg/mL). The activity at 50 µM [6] was 8%, the IC50 [6] was 1380 nM and the activity at 10 µM [7, 14] was 14.5%. For the same molecule, the activity at 10 µM [7, 15] was 9.84%, the activity at 10 µM [7, 16] was 26.2% and the activity at 10 µM [7, 17] was 9.98%. It also gave an activity at 10 µM [7, 18] of 15%, an activity at 10 µM [7, 19] of 16.3% and an activity at 10 µM [7, 20] of 11.8%. For the same molecule, the activity at 10 µM [7, 21] was 15.2%, the activity at 10 µM [7, 22] was 24.3% and the activity at 10 µM [7, 23] was 25.8%. For the same molecule, the activity at 10 µM [7, 24] was 12.6%, the activity at 10 µM [7, 25] was 20.8% and the activity at 10 µM [7, 26] was 23.7%. For the same molecule, the activity at 10 µM [7, 27] was 13.4%, the activity at 10 µM [7, 28] was 21.7% and the activity at 10 µM [7, 29] was 19.3%. It also gave an activity at 10 µM [8] of 41.4%, an activity at 10 µM [9] of 30.1% and an activity at 50 µM [10, 30] of 19%. For the same molecule, the activity at 50 µM [10, 31] was 531%, the activity at 50 µM [10, 32] was 34% and the activity at 50 µM [10, 33] was 22%. For the same molecule, the activity at 50 µM [10, 34] was 39%, the activity at 50 µM [10, 35] was 24% and the inhibition at 50 µM ([10]; PA14, read-out: HHQ production inhibition) was 89 to 99%. For the same molecule, the inhibition at 50 µM ([10]; PA14, read-out: HQNO production inhibition) was 40 to 92%, the inhibition at 50 µM ([10]; PA14, read-out: PQS production inhibition) was 76 to 97% and the inhibition at 50 µM ([10]; PA14, read-out: inhibition of 2-AA production) was 82 to 95%. It also gave an inhibition at 50 µM ([10]; PA14, read-out: inhibition of DHQ production) of 82 to 96%.

`N#Cc1ccc(NC(=O)CC(=O)Nc2ccc(Oc3ccccc3)cc2)cc1` [D57] gave an activity at 50 µM [1] of 4%, an IC50 [1] of 430 nM and an inhibition at 10 µM [2] of at least 76%. The activity at 50 µM [3, 11] was 98.7%, the activity at 50 µM ([3]; read-out: HHQ, ΔmvfR-pqsABCD strain) was 92.2% and the activity at 50 µM [3, 12] was 96.6%. For the same molecule, the activity at 50 µM [3, 13] was 82.3%, the “Response Unit (RU)” value ([4]; Concentration 1.00E-05 M) was 33.5 RU and the “Response Unit (RU)” value ([4]; Concentration 1.00E-06 M) was 18 RU. For the same molecule, the “Response Unit (RU)” value ([4]; Concentration 1.00E-07 M) was 5.7 RU, the “Response Unit (RU)” value ([4]; Concentration 1.00E-08 M) was 1 RU and the “Response Unit (RU)” value ([4]; Concentration 3.16E-06 M) was 26.4 RU. The “Response Unit (RU)” value ([4]; Concentration 3.16E-07 M) was 10.4 RU, the “Response Unit (RU)” value ([4]; Concentration 3.16E-08 M) was 2.9 RU and the solubility at 4 h [5] was 7e-06 M (≈ 2.6 µg/mL). The activity at 50 µM [6] was 6%, the IC50 [6] was 240 nM and the activity at 10 µM [7, 14] was 11%. It also gave an activity at 10 µM [7, 15] of 17.7%, an activity at 10 µM [7, 16] of 18.2% and an activity at 10 µM [7, 17] of 23.1%. For the same molecule, the activity at 10 µM [7, 18] was 41.2%, the activity at 10 µM [7, 19] was 24.2% and the activity at 10 µM [7, 20] was 11.3%. The activity at 10 µM [7, 21] was 13.5%, the activity at 10 µM [7, 22] was 20.7% and the activity at 10 µM [7, 23] was 23.5%. The activity at 10 µM [7, 24] was 17.8%, the activity at 10 µM [7, 25] was 11% and the activity at 10 µM [7, 26] was 33.9%. The activity at 10 µM [7, 27] was 20.9%, the activity at 10 µM [7, 28] was 21.8% and the activity at 10 µM [7, 29] was 27.4%. It also gave an activity at 10 µM [8] of 23.6%, an activity at 10 µM [9] of 32% and an activity at 50 µM [10, 30] of 38%. The activity at 50 µM [10, 31] was 298%, the activity at 50 µM [10, 32] was 65% and the activity at 50 µM [10, 33] was 58%. It also gave an activity at 50 µM [10, 34] of 54% and an activity at 50 µM [10, 35] of 36%.
